Patent US8785655B2, “Ionic liquid solvents” (Dublin City University, priority 2009, dated 2014)

Columns and labels:
Candida krusei E28 = experiment: In vitro antifungal activity, MIC by microdilution (NCCLS M27-A)
Candida krusei ATCC 6258 = experiment: as above
Protocol: (§1) In vitro antifungal activities of the compounds were evaluated on the collection of fungal strains deposited at the Department of Biological and Medical Sciences, Faculty of Pharmacy, Charles University, Czech Republic. All the isolates were maintained on Sabouraud dextrose agar prior to being tested.
(§2) Minimum inhibitory concentrations (MICs) were determined by the microdilution format of the NCCLS M27-A guidelines. […] RPMI 1640 (Sevapharma, Prague) medium supplemented with L-glutamine and buffered with 0.165 M morpholinepropanesulfonic acid to pH 7.0 was used as the test medium. The wells of the microdilution tray contained 100 μl of the RPMI 1640 medium with 2-fold serial dilutions of the compounds (1000 to 0.24 μmol/l for the new compounds) and 100 μl of inoculum suspension. Fungal inoculum in RPMI 1640 was prepared to give a final concentration of 5×103±0.2 cfu·ml-1. The trays were incubated at 35° C. and MICs were read visually for filamentous fungi and photometrically for yeasts as an optical density (OD) at 540 nm after 24 h and 48 h. The MICs were defined as 80% inhibition of the growth of control. MICs were determined twice and in duplicate. The deviations from the usually obtained were no higher than the nearest concentration value up and down the dilution scale.

[1] = system: Candida lusitaniae 2446/l; experiment: as above; settings: CL
Protocol: as §1, §2

[2] = system: Aspergillus fumigatus 231; experiment: as above; settings: AF
Absidia corymbifera 272 = experiment: as above; settings: AC
Candida tropicalis 156 = experiment: as above; settings: CT
Protocol: as §1, §2

[3] = system: Enterococcus sp. J 14365/08; experiment: Screen against bacteria, MIC/IC80; type: cell-based; settings: EF
[4] = system: Trichophyton mentagrophytes 445; experiment: In vitro antifungal activity, MIC by microdilution (NCCLS M27-A); settings: TM
Candida glabrata 20/l = experiment: as above; settings: CG
Protocol: as §1, §2

Escherichia coli CCM4517 = experiment: Screen against bacteria, MIC/IC80; type: cell-based; settings: EC
[5] = system: Staphylococcus aureus H 5996/08 Methiciline-resistant; experiment: Screen against bacteria, MIC/IC80; type: cell-based; settings: MRSA
[6] = system: Klebsiella pneumoniae D 11750/08; experiment: Screen against bacteria, MIC/IC80; type: cell-based; settings: KP
[7] = system: Staphylococcus epidermidis H 6966/08; experiment: Screen against bacteria, MIC/IC80; type: cell-based; settings: SE
[8] = system: Pseudomonas aeruginosa CCM 1961; experiment: Screen against bacteria, MIC/IC80; type: cell-based; settings: PA
[9] = system: Candida albicans ATCC 90028; experiment: In vitro antifungal activity, MIC by microdilution (NCCLS M27-A)
[10] = system: Candida parapsilosis ATCC 22019; experiment: as above; settings: CP
Protocol: as §1, §2

fungi and bacteria = type: cell-based
Protocol: All the 12 bromide salts and 12 octylsulfate CILs in the table below were screened against fungi and bacteria.
CILs with bromide as anion have been screened against the following Fungi and bacteria:
. […] MICs were determined twice and in duplicate.

[11] = system: Staphylococcus aureus CCM 4516/08; experiment: Screen against bacteria, MIC/IC80; type: cell-based; settings: SA
[12] = system: Klebsiella pneumoniae J 14368/08 ESBL-positive; experiment: Screen against bacteria, MIC/IC80; type: cell-based; settings: KP-E
[13] = system: Candida albicans ATCC 44859; experiment: In vitro antifungal activity, MIC by microdilution (NCCLS M27-A)

Compound | MIC/IC80 (Candida krusei E28; CK2, 24 h) [mM] | MIC/IC80 (Candida krusei E28; CK2, 48 h) [mM] | MIC/IC80 (Candida krusei ATCC 6258; CK1, 24 h) [mM] | MIC/IC80 (Candida krusei ATCC 6258; CK1, 48 h) [mM] | MIC/IC80 ([1]; 24 h) [mM] | MIC/IC80 ([1]; 48 h) [mM] | MIC/IC80 ([2]; 24 h) [mM] | MIC/IC80 ([2]; 48 h) [mM] | MIC/IC80 (Absidia corymbifera 272; 24 h) [mM] | MIC/IC80 (Absidia corymbifera 272; 48 h) [mM] | MIC/IC80 (Candida tropicalis 156; 24 h) [mM] | MIC/IC80 (Candida tropicalis 156; 48 h) [mM] | MIC/IC80 ([3]; 24 h) [mM] | MIC/IC80 ([3]; 48 h) [mM] | MIC/IC80 ([4]; 72 h) [mM] | MIC/IC80 ([4]; 120 h) [mM] | MIC/IC80 (Candida glabrata 20/l; 24 h) [mM] | MIC/IC80 (Candida glabrata 20/l; 48 h) [mM] | MIC/IC80 (Escherichia coli CCM4517; 24 h) [mM] | MIC/IC80 (Escherichia coli CCM4517; 48 h) [mM] | also measured
CCCCCCCCOS(=O)(=O)[O-].CCCCCOC(=O)[C@@H](OC(=O)Cn1cc[n+](C)c1)c1ccccc1 [KG302, S-3-methyl-1-[1-(pentoxycarbonyl)-1-phenylmethoxycarbonylmethyl]imidazolium octyl sulphate] | >1 | >1 | >1 | >1 | >1 | >1 | 1 | >1 | 1 | >1 | >1 | >1 | >1 | >1 | 0.25 | 0.5 | >1 | >1 | >1 | >1 | MIC/IC80 ([5]; 24 h): >1 mM; MIC/IC80 ([5]; 48 h): >1 mM; MIC/IC80 ([6]; 24 h): >1 mM; MIC/IC80 ([6]; 48 h): >1 mM; MIC/IC80 ([7]; 24 h): 1 mM; MIC/IC80 ([7]; 48 h): >1 mM; MIC/IC80 ([8]; 24 h): >1 mM; MIC/IC80 ([8]; 48 h): >1 mM; MIC/IC80 ([9]; CA2, 24 h): >1 mM; MIC/IC80 ([9]; CA2, 48 h): >1 mM; MIC/IC80 ([10]; 24 h): >1 mM; MIC/IC80 ([10]; 48 h): >1 mM; toxicity / inhibition of the growth of fungi and bacteria (fungi and bacteria): inhibit the growth of fungi and bacteria; MIC/IC80 ([11]; 24 h): >1 mM; MIC/IC80 ([11]; 48 h): >1 mM; MIC/IC80 ([12]; 24 h): >1 mM; MIC/IC80 ([12]; 48 h): >1 mM; MIC/IC80 ([13]; CA1, 24 h): 1 mM; MIC/IC80 ([13]; CA1, 48 h): 1 mM
CCCCCCCCOS(=O)(=O)[O-].CCCCCOC(=O)C(OC(=O)Cn1cc[n+](C)c1)c1ccccc1 (stereo not drawn) [KG304, RS-3-methyl-1-[1-(pentoxycarbonyl)-1-phenylmethoxycarbonylmethyl]imidazolium octyl sulphate] | >1 | >1 | 1 | >1 | >1 | >1 | 0.5 | >1 | 1 | 1 | >1 | >1 | >1 | >1 | 0.25 | 0.5 | >1 | >1 | >1 | >1 | MIC/IC80 ([5]; 24 h): >1 mM; MIC/IC80 ([5]; 48 h): >1 mM; MIC/IC80 ([6]; 24 h): >1 mM; MIC/IC80 ([6]; 48 h): >1 mM; MIC/IC80 ([7]; 24 h): 1 mM; MIC/IC80 ([7]; 48 h): >1 mM; MIC/IC80 ([8]; 24 h): >1 mM; MIC/IC80 ([8]; 48 h): >1 mM; MIC/IC80 ([9]; CA2, 24 h): >1 mM; MIC/IC80 ([9]; CA2, 48 h): >1 mM; MIC/IC80 ([10]; 24 h): >1 mM; MIC/IC80 ([10]; 48 h): >1 mM; toxicity / inhibition of the growth of fungi and bacteria (fungi and bacteria): inhibit the growth of fungi and bacteria; MIC/IC80 ([11]; 24 h): 1 mM; MIC/IC80 ([11]; 48 h): 1 mM; MIC/IC80 ([12]; 24 h): >1 mM; MIC/IC80 ([12]; 48 h): >1 mM; MIC/IC80 ([13]; CA1, 24 h): 1 mM; MIC/IC80 ([13]; CA1, 48 h): 1 mM
R-3-methyl-1-[1-(pentoxycarbonyl)-1-phenylmethoxycarbonylmethyl]imidazolium octyl sulphate [KG303] | 1 | >1 | 1 | >1 | >1 | >1 | 1 | 1 | 1 | 1 | >1 | >1 | >1 | >1 | 0.25 | 0.5 | >1 | >1 | >1 | >1 | MIC/IC80 ([5]; 24 h): 1 mM; MIC/IC80 ([5]; 48 h): >1 mM; MIC/IC80 ([6]; 24 h): >1 mM; MIC/IC80 ([6]; 48 h): >1 mM; MIC/IC80 ([7]; 24 h): 0.5 mM; MIC/IC80 ([7]; 48 h): 1 mM; MIC/IC80 ([8]; 24 h): >1 mM; MIC/IC80 ([8]; 48 h): >1 mM; MIC/IC80 ([9]; CA2, 24 h): 1 mM; MIC/IC80 ([9]; CA2, 48 h): >1 mM; MIC/IC80 ([10]; 24 h): >1 mM; MIC/IC80 ([10]; 48 h): >1 mM; toxicity / inhibition of the growth of fungi and bacteria (fungi and bacteria): inhibit the growth of fungi and bacteria; MIC/IC80 ([11]; 24 h): 1 mM; MIC/IC80 ([11]; 48 h): 1 mM; MIC/IC80 ([12]; 24 h): >1 mM; MIC/IC80 ([12]; 48 h): >1 mM; MIC/IC80 ([13]; CA1, 24 h): 0.5 mM; MIC/IC80 ([13]; CA1, 48 h): >1 mM
